Results: ChEMBL document CHEMBL4402605, “A Chemical Switch for Transforming a Purine Agonist for Toll-like Receptor 7 to a Clinically Relevant Antagonist” (J Med Chem, 2020)
Calls of active or inactive are those of the source. No cut-off for these calls is given here.

Legend:
[1] = in vitro; conditions: human, plasma
Description: Stability of the compound in human plasma assessed as parent compound remaining at 25 uM measured after 2 hrs by LC-MS/MS analysis

[2] = Cmax in C57BL/6 mouse at 15 mg/kg, po administered via gavage by LC-MS/MS analysis; assay type: ADME, organism-based; design: dose 15 mg/kg, route oral; conditions: in vivo
[3] = Efflux ratio of apparent permeability across basal to apical side over apical to basal side in human Caco2 cells at 10 uM measured after 120 mins by LC-MS/MS analysis; conditions: Caco-2
[4] = test system: Mus musculus; experiment: (§1) Protection against imiquimod-induced C57BL/6 mouse model of psoriasis assessed as suppression of pustule formation at 15 mg/kg, po administered via gavage treated 1 day prior to imiquimod application and subsequent daily dosing for 7 consecutive days and measured post-last dose by H and E staining based histopathological analysis; assay type: functional
[5] = Clearance in mouse liver microsomes at 100 uM by LC-MS/MS analysis relative to hepatic blood flow
[6] = test system: HEK293; experiment: Cytotoxicity against HEK293 cells assessed as reduction in cell viability up to 100 uM measured after overnight incubation by propidium iodide staining based flow cytometry; conditions: human
[7] = test system: Mus musculus; experiment: as §1, with “reduction in MX1 mRNA expression” for “suppression of pustule formation”, “SYBR green dye” for “H and E staining”, “qPCR” for “histopathological”; assay type: functional, organism-based
[8] = Clearance in human liver microsomes at 100 uM by LC-MS/MS analysis relative to hepatic blood flow
[9] = test system: Mus musculus; experiment: as §1, with “suprapapillary thinning” for “pustule formation”; assay type: functional
[10] = test system: Mus musculus; experiment: Protection against imiquimod-induced C57BL/6 mouse model of psoriasis assessed as decrease in skin scaling at 15 mg/kg, po administered via gavage treated 1 day prior to imiquimod application and subsequent daily dosing for 7 consecutive days and measured post-last dose relative to control; assay type: functional; design: scale not given: the % may be the effect or the level left
[11] = AUC (0 to 24 hrs) in C57BL/6 mouse at 15 mg/kg, iv by LC-MS/MS analysis; assay type: ADME, organism-based; design: time < 24 hr, dose 15 mg/kg, route intravenous; conditions: in vivo
[12] = test system: Mus musculus; experiment: as §1, with “acanthosis” for “pustule formation”; assay type: functional
[13] = Volume of distribution at steady state in C57BL/6 mouse at 15 mg/kg, iv by LC-MS/MS analysis; assay type: ADME, organism-based; conditions: in vivo
[14] = Toxicity in C57BL/6 mouse assessed as liver fatty infiltration at 15 mg/kg, po administered once daily via gavage for 7 consecutive days and measured post-last dose by H and E staining based histomorphological analysis; assay type: organism-based; conditions: in vivo
[15] = Oral bioavailability in C57BL/6 mouse at 15 mg/kg administered via gavage by LC-MS/MS analysis; assay type: ADME, organism-based; conditions: in vivo
[16] = Tmax in C57BL/6 mouse at 15 mg/kg, po administered via gavage by LC-MS/MS analysis; assay type: ADME, organism-based; conditions: in vivo
[17] = Toxicity in C57BL/6 mouse assessed as change in hepatocyte survival at 15 mg/kg, po administered once daily via gavage for 7 consecutive days and measured post-last dose by H and E staining based histomorphological analysis; assay type: organism-based; conditions: in vivo
[18] = test system: Mus musculus; experiment: as §1, with “reduction in TNFalpha mRNA expression” for “suppression of pustule formation”, “SYBR green dye” for “H and E staining”, “qPCR” for “histopathological”; assay type: functional, organism-based
[19] = Toxicity in C57BL/6 mouse assessed as physiological abnormalities at 15 mg/kg, po administered once daily via gavage for 7 consecutive days and measured post-last dose by H and E staining based histomorphological analysis; assay type: organism-based; conditions: in vivo
[20] = test system: Mus musculus; experiment: as §1, with “spongiosis” for “pustule formation”; assay type: functional
[21] = Apparent permeability across basal to apical side in human Caco2 cells at 10 uM measured after 120 mins by LC-MS/MS analysis; conditions: Caco-2
[22] = target: T1, Toll-like receptor 8 (Homo sapiens) (UniProt Q9NR97); experiment: Antagonist activity at human TLR8 expressed in HEK-Blue cells assessed as inhibition of CL075-induced NFkappaB activation by measuring reduction in SEAP level up to 50 uM after overnight incubation using qunati-blue reagent by SEAP reporter gene-based spectrophotometric method; assay type: cell-based
T1 sequence (whole entry): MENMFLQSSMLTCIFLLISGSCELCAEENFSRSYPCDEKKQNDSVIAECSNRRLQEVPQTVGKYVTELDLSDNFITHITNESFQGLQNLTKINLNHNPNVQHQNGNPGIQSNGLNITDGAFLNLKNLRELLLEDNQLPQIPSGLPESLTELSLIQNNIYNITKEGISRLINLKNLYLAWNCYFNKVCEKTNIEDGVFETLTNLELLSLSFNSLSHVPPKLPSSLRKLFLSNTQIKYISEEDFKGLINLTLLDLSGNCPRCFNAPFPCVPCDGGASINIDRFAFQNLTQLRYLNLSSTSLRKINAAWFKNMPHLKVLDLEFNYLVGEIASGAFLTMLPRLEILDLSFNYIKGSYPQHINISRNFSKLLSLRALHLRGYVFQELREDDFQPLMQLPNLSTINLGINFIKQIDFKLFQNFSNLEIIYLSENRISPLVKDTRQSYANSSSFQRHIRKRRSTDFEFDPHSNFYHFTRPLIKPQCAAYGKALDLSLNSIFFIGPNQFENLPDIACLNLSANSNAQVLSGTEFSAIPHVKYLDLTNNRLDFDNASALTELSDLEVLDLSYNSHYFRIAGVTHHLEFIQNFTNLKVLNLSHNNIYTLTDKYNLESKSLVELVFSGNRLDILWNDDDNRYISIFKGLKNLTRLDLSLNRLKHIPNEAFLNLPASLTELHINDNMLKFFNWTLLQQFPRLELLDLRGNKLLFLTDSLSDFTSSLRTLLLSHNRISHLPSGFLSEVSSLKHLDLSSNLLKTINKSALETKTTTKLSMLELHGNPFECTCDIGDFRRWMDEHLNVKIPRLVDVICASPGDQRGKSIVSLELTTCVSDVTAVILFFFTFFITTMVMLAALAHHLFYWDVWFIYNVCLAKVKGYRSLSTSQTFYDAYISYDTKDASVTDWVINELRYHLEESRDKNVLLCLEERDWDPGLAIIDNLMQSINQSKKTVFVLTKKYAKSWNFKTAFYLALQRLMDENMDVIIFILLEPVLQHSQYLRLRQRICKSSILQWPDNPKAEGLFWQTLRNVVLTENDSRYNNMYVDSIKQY

[23] = in vitro; conditions: mouse, plasma
Description: Stability of the compound in mouse plasma assessed as parent compound remaining at 25 uM measured after 2 hrs by LC-MS/MS analysis

[24] = Toxicity in C57BL/6 mouse assessed as change in liver parenchymal architecture at 15 mg/kg, po administered once daily via gavage for 7 consecutive days and measured post-last dose by H and E staining based histomorphological analysis; assay type: organism-based; conditions: in vivo
[25] = Half life in C57BL/6 mouse at 15 mg/kg, po administered via gavage by LC-MS/MS analysis; conditions: in vivo
[26] = Toxicity in C57BL/6 mouse assessed as behavioral changes at 15 mg/kg, po administered once daily via gavage for 7 consecutive days and measured post-last dose by H and E staining based histomorphological analysis; assay type: organism-based; conditions: in vivo
[27] = AUC (0 to 24 hrs) in C57BL/6 mouse at 15 mg/kg, po administered via gavage by LC-MS/MS analysis; assay type: ADME, organism-based; design: time < 24 hr, dose 15 mg/kg, route oral; conditions: in vivo

**Q.** Which remaining at 2 h, 25 µM [1] does the source give for `CCN1CCN(CCCn2cnc3c(N4CCN(CC)CC4)ncnc32)CC1` here?
**A.** Its remaining at 2 h, 25 µM is 95%.

**Q.** And the Cmax [2]?
**A.** The Cmax was 2600 ng/mL.

**Q.** And the efflux ratio at 2 h, 10 µM [3]?
**A.** Its efflux ratio at 2 h, 10 µM is 2.6.

**Q.** What about the Activity [4] of the same compound?
**A.** Its Activity is 100%.

**Q.** What about the hepatic extraction ratio at 100 µM [5] of the same compound?
**A.** Its hepatic extraction ratio at 100 µM is 0.144.

**Q.** What about the Activity [6] of the same compound?
**A.** The Activity was “Non-Toxic”.

**Q.** And the Activity [7]?
**A.** Its Activity is “Active”.

**Q.** What about the hepatic extraction ratio at 100 µM [8] of the same compound?
**A.** Its hepatic extraction ratio at 100 µM is 0.265.

**Q.** What about the Activity [9] of the same compound?
**A.** The Activity was 100%.

**Q.** What about the Activity [10] of the same compound?
**A.** The Activity was 100%.

**Q.** What about the AUC(0-t) at 24 h [11] of the same compound?
**A.** Its AUC(0-t) at 24 h is 50900 ng·h/mL.

**Q.** What about the Activity [12] of the same compound?
**A.** Its Activity is 100%.

**Q.** And the Vdss [13]?
**A.** The Vdss was 4.2 L/kg.

**Q.** What about the Activity [14] of the same compound?
**A.** The Activity was “Non-Toxic”.

**Q.** And the bioavailability [15]?
**A.** Its bioavailability is 70.8%.

**Q.** What about the Tmax [16] of the same compound?
**A.** Its Tmax is 2 h.

**Q.** What about the Activity [17] of the same compound?
**A.** Its Activity is “Non-Toxic”.

**Q.** What about the Activity [18] of the same compound?
**A.** The Activity was “Active”.

**Q.** What about the Activity [19] of the same compound?
**A.** Its Activity is “Non-Toxic”.

**Q.** What about the Activity [20] of the same compound?
**A.** Its Activity is 100%.

**Q.** What about the Papp B→A at 2 h, 10 µM [21] of the same compound?
**A.** Its Papp B→A at 2 h, 10 µM is 9.28 ×10⁻⁶ cm/s.

**Q.** What about the inhibition [22] of the same compound?
**A.** The inhibition was “inactive”.

**Q.** What about the remaining at 2 h, 25 µM [23] of the same compound?
**A.** The remaining at 2 h, 25 µM was 99.2%.

**Q.** And the Activity [24]?
**A.** The Activity was “Non-Toxic”.

**Q.** What about the half-life [25] of the same compound?
**A.** Its half-life is 4.6 h.

**Q.** What about the Activity [26] of the same compound?
**A.** Its Activity is “Non-Toxic”.

**Q.** And the AUC(0-t) at 24 h [27]?
**A.** The AUC(0-t) at 24 h was 36100 ng·h/mL.
